System: Scenedesmus obliquus
Test: Toxicity of Cd to Scenedesmus obliquus cultures
Format: cell-based
Conditions: Cd(NO3)2
Experimental: Laboratory grown cultures of Scenedesmus obliquus were obtained from the Canadian Phycological Culture Center (CPCC) in Waterloo, Ontario. The cells were grown using a bold basal media (BBM) at standard light regimes (16:8 h light to dark) fixed light intensity of 90-100 μmol photons […] and fixed temperature of 21° C. constantly aerated in a growth chamber.
Four algal cultures were grown in the presence of varying levels of Cd: control (0 μL^−1 Cd); EC20 (19.5 μL^−1Cd); EC30 (46.4 μL^−1 Cd) and EC40 (78.8 μL^−1 Cd) starting at 1 million cells per mL for Replicate 1 and 2 million cells per mL for Replicate 2. The cells were harvested in early stationary phase for further analysis.

O=[N+]([O-])[O-].O=[N+]([O-])[O-].[Cd+2] [Cd, Cd(NO3)2]
toxicity of Cd, EC20: 19.5 μL^−1Cd
toxicity of Cd, EC30: 46.4 μL^−1 Cd
toxicity of Cd, EC40: 78.8 μL^−1 Cd

Source: patent US11440822B2, “Methods and uses of dissolved organic material fractions for binding metal ions” (priority 2016, dated 2022)
